According to patent publication US20230357248A1, “PYRROLOPYRIMIDINE COMPOUND AS BTK INHIBITOR AND USE THEREOF” (MEDSHINE DISCOVERY INC., priority 2019, published 2023):

Molecular target: BTK^C481S (Homo sapiens (Human), UniProt Q06187, C481S)
Assay: BTK enzyme activity assay
Format: biochemical
Details: 200 μM ATP; 33P-ATP, filter-binding method
Procedure: The specific assay process of BTK enzyme activity assay is as follows: Buffer: 20 mM 2-[4-(2-hydroxyethyl)-1-piperazinyl]ethanesulfonic acid (Hepes) (pH 7.5), 10 mM magnesium chloride, 1 mM ethylenebis(oxyethylenenitrilo)tetraacetic acid (EGTA), 0.02% polyoxyethylene dodecyl ether (Brij35), 0.02 mg/mL BSA, 0.1 mM sodium vanadate (Na3VO4), 2 mM dithiothreitol (DTT), 1% DMSO, 200 μM adenosine triphosphate (ATP). • 1. The substrate was prepared in freshly prepared reaction buffer; • 2. The required cofactor was added to the above-mentioned substrate solution; • 3. The kinase BTK^C481S was added to the above-mentioned substrate solution and mixed well; • 4. The compound dissolved in DMSO was added to the kinase reaction mixture by Echo550 (Acoustic technology; nanoliter range), and the mixture was incubated at room temperature for 20 minutes; • 5. ^33P-ATP (specific radioactivity of 10 μCi/μL) was added to the reaction mixture to initiate the reaction; • 6. The mixture was incubated at room temperature for 2 hours; • 7. The radioactivity was detected by filter-binding method; • 8. Kinase activity data represented the percentage of remaining kinase activity in the assay sample compared to the vehicle (dimethyl sulfoxide) reaction.

Sequence of BTK^C481S (Q06187 whole entry C481S): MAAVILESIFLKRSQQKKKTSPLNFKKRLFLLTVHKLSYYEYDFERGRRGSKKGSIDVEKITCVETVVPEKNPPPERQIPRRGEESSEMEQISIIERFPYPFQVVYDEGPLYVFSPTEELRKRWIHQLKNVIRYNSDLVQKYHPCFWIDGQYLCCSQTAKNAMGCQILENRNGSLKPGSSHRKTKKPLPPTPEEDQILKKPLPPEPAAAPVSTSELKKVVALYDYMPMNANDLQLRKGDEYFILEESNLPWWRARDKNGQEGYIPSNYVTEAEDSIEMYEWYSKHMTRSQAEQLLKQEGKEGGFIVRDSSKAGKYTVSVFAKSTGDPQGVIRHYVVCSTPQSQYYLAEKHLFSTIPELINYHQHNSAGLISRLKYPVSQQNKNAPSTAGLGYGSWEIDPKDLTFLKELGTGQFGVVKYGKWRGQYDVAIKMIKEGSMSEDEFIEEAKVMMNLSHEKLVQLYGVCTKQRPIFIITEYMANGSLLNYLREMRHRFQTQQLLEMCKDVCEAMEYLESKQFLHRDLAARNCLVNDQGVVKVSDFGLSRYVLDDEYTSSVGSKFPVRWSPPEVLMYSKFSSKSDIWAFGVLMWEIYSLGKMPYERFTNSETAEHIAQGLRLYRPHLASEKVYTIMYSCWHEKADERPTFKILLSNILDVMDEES

IC50 | Structure (SMILES)
6.7 nM | O=C(c1ccc(Oc2ccccc2)cc1Cl)c1c[nH]c2ncnc(N[C@H]3CO[C@H](CO)C[C@@H]3F)c12 [Compound 3]
8.9 nM | O=C(c1ccc(Oc2ccccc2)cc1Cl)c1c[nH]c2ncnc(N[C@H]3CO[C@H](CO)C[C@H]3OCCO)c12 [Compound 8]
39.8 nM | CO[C@@H]1C[C@@H](CO)OC[C@@H]1Nc1ncnc2[nH]cc(C(=O)c3ccc(Oc4ccccc4F)cc3Cl)c12 [Compound 12]
15.2 nM | CO[C@@H]1C[C@@H](CO)OC[C@@H]1Nc1ncnc2[nH]cc(C(=O)c3ccc(Oc4ccccc4)cc3C)c12 [Compound 9]
14.9 nM | CO[C@@H]1C[C@@H](CO)OC[C@@H]1Nc1ncnc2[nH]cc(C(=O)c3ccc(Oc4ccccc4)cc3F)c12 [Compound 10]
10.7 nM | N#C[C@@H]1CC[C@@H](Nc2ncnc3[nH]cc(C(=O)c4ccc(Oc5ccccc5)cc4Cl)c23)CO1 [Compound 5]
6.5 nM | N#CC[C@@H]1CC[C@@H](Nc2ncnc3[nH]cc(C(=O)c4ccc(Oc5ccccc5)cc4Cl)c23)CO1 [Compound 6]
15.1 nM | [2H]C([2H])([2H])O[C@@H]1C[C@@H](CO)OC[C@@H]1Nc1ncnc2[nH]cc(C(=O)c3ccc(Oc4ccccc4)cc3Cl)c12 [Compound 13]
43.6 nM | CO[C@H]1C[C@@H](CO)OC[C@@H]1Nc1ncnc2[nH]cc(C(=O)c3ccc(Oc4ccccc4)cc3Cl)c12 [Compound 7]
1.7 nM | O=C(c1ccc(Oc2ccccc2)cc1Cl)c1c[nH]c2ncnc(N[C@H]3CO[C@H](CO)C4CC43)c12 (stereo partly shown) [Compound 1]
12.5 nM | O=C(c1ccc(Oc2ccccc2)cc1Cl)c1c[nH]c2ncnc(N[C@H]3CO[C@H](CO)CC3(F)F)c12 [Compound 2]

Test system: TMD8 cells
Assay: BTK cell activity assay (CellTiter Glo)
Format: cell-based
Details: Homo sapiens, Cell Titer Glo, read-out: Relative IC50
Procedure: 1. Cell Culture and Passage
The medium, trypsin and 1×PBS used in the cell passage process were preheated in a 37° C. water bath. The supernatant was aspirated.
1 mL of trypsin was added to rinse, and the rinse solution was aspirated. 1 mL of trypsin was added, respectively, and cells were digested at 37° C. until the cells fell off. 10 mL of culture medium was added and mixed well. The mixture was centrifuged at 1000 rpm for 5 min and the cells were resuspended in 10 mL of culture medium. 0.7 mL of cell suspension was pipetted into a counting cup and counted on ViCell XR to respectively obtain a cell density of 0.327 million/mL. 1.17 mL of cell suspension and culture medium were weighed, respectively, to dilute the cell suspension. According to the microplate layout diagram below, 100 μL of phosphate buffer was added to the peripheral wells of the 384-well microplate, and 40 μL of cell suspension was added to other wells, respectively. The cell plate was then cultured in an incubator.
2. Dosing • (1) Preparation of compound:
A 9 μL dilution of the compound to be assayed was added to a shallow-well plate for Pod (Labcyte, #LP-0200). The shallow-well plate was centrifuged at 2500 rpm for 30 s. • (2) The cell plate was removed from the incubator. • (3) According to the microplate layout diagram below, compounds were serially diluted 3-fold in Pod to obtain 10 concentrations. The diluted compounds were added to the cell plate at 100 nL, respectively, and then the cell plate was returned to the incubator for culture. • 3. At Day 0, 20 μL of CellTiter Glo was added to the plate with DMSO added, and the mixture was shaken in the dark for 10 minutes. The plate was read with Envision. • 4. At Day 5: CTG was added and the plate was read. • (1) After being cultured for 72 h, 20 μL of Cell Titer Glo was added to the cell plate, and the mixture was shaken in the dark for 10 minutes. • (2) The plate was read with Envision.
Assay Results • 1. Average value and standard deviation of 0% inhibition (DMSO well, MAX) and 100% inhibition (day 0, DMSO) in each group were calculated; • 2. […]

Structure (SMILES) | IC50
O=C(c1ccc(Oc2ccccc2)cc1Cl)c1c[nH]c2ncnc(N[C@H]3CO[C@H](CO)C[C@@H]3F)c12 [Compound 3] | 217 nM
O=C(c1ccc(Oc2ccccc2)cc1Cl)c1c[nH]c2ncnc(N[C@H]3CO[C@H](CO)CC3(F)F)c12 [Compound 2] | 269 nM
